One assay concerns Apera spica-venti. In words: Pre-emergence treatment test in dry field. In kind it is in vivo. As to conditions: treatment amount 500 g/ha; sprayed onto soil surface after sowing; three weeks after treatment; 0 = no effect, 10 = complete death. As for the experimental part: A plastic container (32 cm×22 cm×8 cm in height) was filled with soil sterilized by steam. Seeds of Apera spica-venti were sowed in the container and covered with soil about 0.5 cm thick. Then, a diluted liquid formulation containing a prescribed amount of the compound I-a-1 was sprayed onto the soil surface uniformly. The diluted liquid formulation was prepared by the method similar to that in Test example 1. After the treatment, the plants were grown in a greenhouse. Three weeks after treatment, the controlling effect of the compound on Apera spica-venti was visually evaluated. The effect was rated in 11 levels, from 0 to 10 similarly to Test example 1.
The other compounds of the present invention and Compound A as a comparative example were similarly tested.

Another assay deals with Lolium multiflorum. In words: Post-emergence treatment test in dry field. In kind it is in vivo. Particulars: treatment amount 500 g/ha; foliar spray at first to second leaf stage; twenty days after treatment; 0 = no effect, 10 = complete death. Here is the method: A plastic cup with a diameter of 8 cm and a depth of 6.5 cm was filled with commercially available soil. Seeds of Lolium multiflorum were sowed in the cup, covered with soil about 0.5 cm thick and then grown in a greenhouse. When the plants were grown in the first to second leaf stage, a diluted liquid formulation containing a prescribed amount of the compound I-a-2 was sprayed onto the whole plants uniformly. The diluted liquid formulation was prepared by dissolving a prescribed amount of the compound I-a-2 in a 2% solution of Tween 20 (polyoxyethylene sorbitan fatty acid ester, MP Biomedicals, Inc.) in dimethylformamide and then diluting the solution with deionized water. After the treatment, the plants were grown in a greenhouse. Twenty days after treatment, the controlling effect of the compound on Lolium multiflorum was visually evaluated. The effect was rated in 11 levels, from 0 to 10 (0 represents “no effect”; 10 represents “complete death”; and a state of the plant therebetween is rated in levels of 1 to 9).
The other compounds of the present invention, and Compound A described in J. Heterocycl. Chem., vol. 42, pp. 427-435 (2005) as a comparative example were similarly tested.

On to `Cc1ccccc1-c1c(O)cnn(C)c1=O` [Compound A], for which, in the assay with Apera spica-venti, the “controlling effect on Apera spica-venti (visually evaluated, rated 0 to 10)” value came out at 1. Besides, the “controlling effect on Lolium multiflorum (visually evaluated, rated 0 to 10)” value in the assay on Lolium multiflorum is given as 1.

Source of the values: patent US8470738B2, “Pyridazinone compound and herbicide containing the same” (Sumitomo Chemical Company, Limited, priority 2007, dated 2013).
